Our source for the IC50 values is ChEMBL document CHEMBL1129940, “Cytotoxicity of platinum (II) dinuclear complexes with 1-alkylthymine ligands against mouse sarcoma 180 cells” (J Med Chem, 1997).

The test system of the test is CCRF S-180. The test is described as follows: In vitro inhibitory concentration against growth of mouse sarcoma 180 (S-180) cells. It is filed as functional, cell-based.

As to CISPLATIN, inhibition was half-maximal at 1.07 µM (IC50).
